Here are results for two molecules from patent publication EP0415567A2, “Composition and method for stabilising organic compounds” (QUADRANT BIORESOURCES LIMITED, priority 1989, dated 1991).

In one series the test system is DNA ligase. Put plainly: Storage stability of dried ATP by DNA ligase assay. It counts as biochemical. The note with it: ATP at 0.5 mM dried with ligase in trehalose buffer, no acetate as efflorescent salt; 2 weeks at 37°C. An excerpt:
Using an assay for DNA ligase whioh joins DNA fragments using ATP as an energy source.

For series [1] the following is noted: solutions of 25% wv, in six hours at 5°C; cited from earlier work.

For the molecule `Nc1ncnc2c1ncn2[C@@H]1O[C@H](COP(=O)(O)OP(=O)(O)OP(=O)(O)O)[C@@H](O)[C@H]1O` [ATP], the “stability of ATP in the dry state” value with DNA ligase is reported as “completely stable”.

For `CC1(C)S[C@@H]2[C@H](NC(=O)[C@H](N)c3ccccc3)C(=O)N2[C@H]1C(=O)O` [Ampicillin sodium], the loss of potency in series [1] is on record as 20%.
